Reference: ChEMBL document CHEMBL1143353, “Pyrazolo[1,5-a]-1,3,5-triazine as a purine bioisostere: access to potent cyclin-dependent kinase inhibitor (R)-roscovitine analogue” (J Med Chem, 2009)

What was measured:
CAKI-1 = assay: cells; settings: Homo sapiens, CAKI-1, 72 h
Description: Antiproliferative activity against human Caki1 cells after 72 hrs by ViaLight assay

LOX IMVI = assay: cells; settings: Homo sapiens, 72 h
Description: Antiproliferative activity against human LOXIMVI cells after 72 hrs by ViaLight assay

NCI/ADR-RES = assay: cells; settings: Homo sapiens, 72 h
Description: Antiproliferative activity against human NCI/ADR-RES cells after 72 hrs by ViaLight assay

HCT-15 = assay: cells; settings: Homo sapiens, HCT-15, 72 h
Description: Antiproliferative activity against human HCT15 cells after 72 hrs by ViaLight assay

MDA-MB-435 = assay: cells; settings: Homo sapiens, MDA-MB-435, 72 h
Description: Antiproliferative activity against human MDA-MB-435 cells after 72 hrs by ViaLight assay

DU-145 = assay: cells; settings: Homo sapiens, DU-145, 72 h
Description: Antiproliferative activity against human DU145 cells after 72 hrs by ViaLight assay

COLO 205 = assay: cells; settings: Homo sapiens, COLO 205, 72 h
Description: Antiproliferative activity against human COLO205 cells after 72 hrs by ViaLight assay

cells [1] = settings: Homo sapiens, RPMI8266, 72 h
Description: Antiproliferative activity against human RPMI8266 cells after 72 hrs by ViaLight assay

786-0 = assay: cells; settings: Homo sapiens, 786-0, 72 h
Description: Antiproliferative activity against human 786-0 cells after 72 hrs by ViaLight assay

[2] = Inhibition of starfish oocytes CDK1/cyclin B; design: species or system Marthasterias glacialis; settings: oocyte
SNB-75 = assay: cells; settings: Homo sapiens, SNB-75, 72 h
Description: Antiproliferative activity against human SNB75 cells after 72 hrs by ViaLight assay

NCI-H522 = assay: cells; settings: Homo sapiens, NCI-H522, 72 h
Description: Antiproliferative activity against human NCI-H522 cells after 72 hrs by ViaLight assay

cells [3] = settings: Homo sapiens, Hs-578T, 72 h
Description: Antiproliferative activity against human Hs 578T cells after 72 hrs by ViaLight assay

TK-10 = assay: cells; settings: Homo sapiens, TK-10, 72 h
Description: Antiproliferative activity against human TK10 cells after 72 hrs by ViaLight assay

K562 = assay: cells; settings: Homo sapiens, K562, 72 h
Description: Antiproliferative activity against human K562 cells after 72 hrs by ViaLight assay

T47D = assay: cells; settings: Homo sapiens, 72 h
Description: Antiproliferative activity against human T47D cells after 72 hrs by ViaLight assay

RXF 393 = assay: cells; settings: Homo sapiens, RXF 393, 72 h
Description: Antiproliferative activity against human RFX393 cells after 72 hrs by ViaLight assay

NCI-H460 = assay: cells; settings: Homo sapiens, NCI-H460, 72 h
Description: Antiproliferative activity against human NCI-H460 cells after 72 hrs by ViaLight assay

NCI-H23 = assay: cells; settings: Homo sapiens, NCI-H23, 72 h
Description: Antiproliferative activity against human NCI-H23 cells after 72 hrs by ViaLight assay

OVCAR-3 = assay: cells; settings: Homo sapiens, OVCAR-3, 72 h
Description: Antiproliferative activity against human OVCAR-3 cells after 72 hrs by ViaLight assay

cells [4] = settings: Homo sapiens, HL-60, 72 h
Description: Antiproliferative activity against human HL60(TB) cells after 72 hrs by ViaLight assay

M14 = assay: cells; settings: Homo sapiens, M14, 72 h
Description: Antiproliferative activity against human M14 cells after 72 hrs by ViaLight assay

HT-29 = assay: cells; settings: Homo sapiens, HT-29, 72 h
Description: Antiproliferative activity against human HT29 cells after 72 hrs by ViaLight assay

HOP-62 = assay: cells; settings: Homo sapiens, HOP-62, 72 h
Description: Antiproliferative activity against human HOP62 cells after 72 hrs by ViaLight assay

A498 = assay: cells; settings: Homo sapiens, A498, 72 h
Description: Antiproliferative activity against human A498 cells after 72 hrs by ViaLight assay

SF-268 = assay: cells; settings: Homo sapiens, SF-268, 72 h
Description: Antiproliferative activity against human SF268 cells after 72 hrs by ViaLight assay

UO-31 = assay: cells; settings: Homo sapiens, UO-31, 72 h
Description: Antiproliferative activity against human UO31 cells after 72 hrs by ViaLight assay

UACC-62 = assay: cells; settings: Homo sapiens, UACC-62, 72 h
Description: Antiproliferative activity against human UACC62 cells after 72 hrs by ViaLight assay

IGROV-1 = assay: cells; settings: Homo sapiens, IGROV-1, 72 h
Description: Antiproliferative activity against human IGROV1 cells after 72 hrs by ViaLight assay

SNB-19 = assay: cells; settings: Homo sapiens, SNB-19, 72 h
Description: Antiproliferative activity against human SNB19 cells after 72 hrs by ViaLight assay

CC[C@H](CO)Nc1nc(NCc2ccccc2)n2ncc(C(C)C)c2n1
GI50 (CAKI-1): 1.02 µM
TGI (CAKI-1): 8.35 µM
CC50 (CAKI-1; read-out: LC50): > 100 µM
GI50 (CAKI-1; read-out: pGI50 (converted)): 1.05 µM
CC50 (CAKI-1; read-out: pLC50 (converted)): 100 µM
TGI (CAKI-1; read-out: pTGI): 8.13 µM
GI50 (LOX IMVI): 1.07 µM
TGI (LOX IMVI): 10.3 µM
CC50 (LOX IMVI; read-out: LC50): 34.4 µM
GI50 (LOX IMVI; read-out: pGI50 (converted)): 1.07 µM
CC50 (LOX IMVI; read-out: pLC50 (converted)): 34.7 µM
TGI (LOX IMVI; read-out: pTGI): 10.2 µM
GI50 (NCI/ADR-RES): 2.08 µM
TGI (NCI/ADR-RES): 15.7 µM
CC50 (NCI/ADR-RES; read-out: LC50): > 100 µM
GI50 (NCI/ADR-RES; read-out: pGI50 (converted)): 2.09 µM
CC50 (NCI/ADR-RES; read-out: pLC50 (converted)): 100 µM
TGI (NCI/ADR-RES; read-out: pTGI): 15.8 µM
GI50 (HCT-15): 0.87 µM
TGI (HCT-15): 10.5 µM
CC50 (HCT-15; read-out: LC50): > 100 µM
GI50 (HCT-15; read-out: pGI50 (converted)): 8.91 µM
CC50 (HCT-15; read-out: pLC50 (converted)): 100 µM
TGI (HCT-15; read-out: pTGI): 10.5 µM
GI50 (MDA-MB-435): 2.06 µM
TGI (MDA-MB-435): 10.1 µM
CC50 (MDA-MB-435; read-out: LC50): 41.4 µM
GI50 (MDA-MB-435; read-out: pGI50 (converted)): 2.09 µM
CC50 (MDA-MB-435; read-out: pLC50 (converted)): 41.7 µM
TGI (MDA-MB-435; read-out: pTGI): 10 µM
GI50 (DU-145): 1.3 µM
TGI (DU-145): 9.52 µM
CC50 (DU-145; read-out: LC50): > 100 µM
GI50 (DU-145; read-out: pGI50 (converted)): 2.63 µM
CC50 (DU-145; read-out: pLC50 (converted)): 100 µM
TGI (DU-145; read-out: pTGI): 9.55 µM
GI50 (COLO 205): 1.12 µM
TGI (COLO 205): 3.15 µM
CC50 (COLO 205; read-out: LC50): 8.86 µM
GI50 (COLO 205; read-out: pGI50 (converted)): 1.12 µM
CC50 (COLO 205; read-out: pLC50 (converted)): 8.71 µM
TGI (COLO 205; read-out: pTGI): 3.16 µM
GI50 (cells [1]): 2.23 µM
TGI (cells [1]): 6.93 µM
CC50 (cells [1]; read-out: LC50): > 100 µM
GI50 (cells [1]; read-out: pGI50 (converted)): 2.24 µM
CC50 (cells [1]; read-out: pLC50 (converted)): 100 µM
TGI (cells [1]; read-out: pTGI): 6.92 µM
GI50 (786-0): 1.98 µM
TGI (786-0): 10.7 µM
CC50 (786-0; read-out: LC50): > 100 µM
GI50 (786-0; read-out: pGI50 (converted)): 1.86 µM
CC50 (786-0; read-out: pLC50 (converted)): 100 µM
TGI (786-0; read-out: pTGI): 0.135 µM
IC50 [2]: 0.073 µM
GI50 (SNB-75): 1.31 µM
TGI (SNB-75): 3.33 µM
CC50 (SNB-75; read-out: LC50): 8.48 µM
GI50 (SNB-75; read-out: pGI50 (converted)): 1.32 µM
CC50 (SNB-75; read-out: pLC50 (converted)): 8.51 µM
TGI (SNB-75; read-out: pTGI): 3.31 µM
GI50 (NCI-H522): 1.46 µM
TGI (NCI-H522): 8.98 µM
CC50 (NCI-H522; read-out: LC50): > 100 µM
GI50 (NCI-H522; read-out: pGI50 (converted)): 1.45 µM
CC50 (NCI-H522; read-out: pLC50 (converted)): 100 µM
TGI (NCI-H522; read-out: pTGI): 8.91 µM
GI50 (cells [3]): 1.59 µM
TGI (cells [3]): 6.16 µM
CC50 (cells [3]; read-out: LC50): > 100 µM
GI50 (cells [3]; read-out: pGI50 (converted)): 1.58 µM
CC50 (cells [3]; read-out: pLC50 (converted)): 100 µM
TGI (cells [3]; read-out: pTGI): 6.17 µM
GI50 (TK-10): 2 µM
TGI (TK-10): 10.9 µM
CC50 (TK-10; read-out: LC50): > 100 µM
GI50 (TK-10; read-out: pGI50 (converted)): 2 µM
CC50 (TK-10; read-out: pLC50 (converted)): 100 µM
TGI (TK-10; read-out: pTGI): 11 µM
GI50 (K562): 2.44 µM
TGI (K562): 7.38 µM
CC50 (K562; read-out: LC50): > 100 µM
GI50 (K562; read-out: pGI50 (converted)): 2.45 µM
CC50 (K562; read-out: pLC50 (converted)): 100 µM
TGI (K562; read-out: pTGI): 7.41 µM
GI50 (T47D): 2.48 µM
TGI (T47D): 13.3 µM
CC50 (T47D; read-out: LC50): > 100 µM
GI50 (T47D; read-out: pGI50 (converted)): 3.09 µM
CC50 (T47D; read-out: pLC50 (converted)): 100 µM
TGI (T47D; read-out: pTGI): 12.9 µM
GI50 (RXF 393): 0.25 µM
TGI (RXF 393): 0.79 µM
CC50 (RXF 393; read-out: LC50): 4.25 µM
GI50 (RXF 393; read-out: pGI50 (converted)): 0.251 µM
CC50 (RXF 393; read-out: pLC50 (converted)): 4.27 µM
TGI (RXF 393; read-out: pTGI): 0.794 µM
GI50 (NCI-H460): 1.05 µM
TGI (NCI-H460): 10.9 µM
CC50 (NCI-H460; read-out: LC50): > 100 µM
GI50 (NCI-H460; read-out: pGI50 (converted)): 1.05 µM
CC50 (NCI-H460; read-out: pLC50 (converted)): 100 µM
TGI (NCI-H460; read-out: pTGI): 11 µM
GI50 (NCI-H23): 1.71 µM
TGI (NCI-H23): 7.79 µM
CC50 (NCI-H23; read-out: LC50): > 100 µM
GI50 (NCI-H23; read-out: pGI50 (converted)): 1.7 µM
CC50 (NCI-H23; read-out: pLC50 (converted)): 100 µM
TGI (NCI-H23; read-out: pTGI): 7.76 µM
GI50 (OVCAR-3): 1.15 µM
TGI (OVCAR-3): 4.6 µM
CC50 (OVCAR-3; read-out: LC50): 42.4 µM
GI50 (OVCAR-3; read-out: pGI50 (converted)): 1.45 µM
CC50 (OVCAR-3; read-out: pLC50 (converted)): 42.7 µM
TGI (OVCAR-3; read-out: pTGI): 4.57 µM
GI50 (cells [4]): 0.41 µM
TGI (cells [4]): 2.68 µM
CC50 (cells [4]; read-out: LC50): > 100 µM
GI50 (cells [4]; read-out: pGI50 (converted)): 0.407 µM
CC50 (cells [4]; read-out: pLC50 (converted)): 100 µM
TGI (cells [4]; read-out: pTGI): 2.69 µM
GI50 (M14): 2 µM
TGI (M14): 7.93 µM
CC50 (M14; read-out: LC50): 34.3 µM
GI50 (M14; read-out: pGI50 (converted)): 2 µM
CC50 (M14; read-out: pLC50 (converted)): 34.7 µM
TGI (M14; read-out: pTGI): 7.94 µM
GI50 (HT-29): 2 µM
TGI (HT-29): 15.5 µM
CC50 (HT-29; read-out: LC50): > 100 µM
GI50 (HT-29; read-out: pGI50 (converted)): 2 µM
CC50 (HT-29; read-out: pLC50 (converted)): 100 µM
TGI (HT-29; read-out: pTGI): 15.5 µM
GI50 (HOP-62): 2.1 µM
TGI (HOP-62): 8.72 µM
CC50 (HOP-62; read-out: LC50): > 100 µM
GI50 (HOP-62; read-out: pGI50 (converted)): 2.09 µM
CC50 (HOP-62; read-out: pLC50 (converted)): 100 µM
TGI (HOP-62; read-out: pTGI): 1.1 µM
GI50 (A498): 1.25 µM
TGI (A498): 3.44 µM
CC50 (A498; read-out: LC50): 9.47 µM
GI50 (A498; read-out: pGI50 (converted)): 1.12 µM
CC50 (A498; read-out: pLC50 (converted)): 9.55 µM
TGI (A498; read-out: pTGI): 3.31 µM
GI50 (SF-268): 1.82 µM
TGI (SF-268): 7.2 µM
CC50 (SF-268; read-out: LC50): > 100 µM
GI50 (SF-268; read-out: pGI50 (converted)): 1.82 µM
CC50 (SF-268; read-out: pLC50 (converted)): 100 µM
TGI (SF-268; read-out: pTGI): 7.24 µM
GI50 (UO-31): 1.59 µM
TGI (UO-31): > 100 µM
GI50 (UO-31; read-out: pGI50 (converted)): 1.58 µM
TGI (UO-31; read-out: pTGI): 100 µM
GI50 (UACC-62): 1.37 µM
TGI (UACC-62): 5.5 µM
CC50 (UACC-62; read-out: LC50): 31.1 µM
GI50 (UACC-62; read-out: pGI50 (converted)): 1.38 µM
CC50 (UACC-62; read-out: pLC50 (converted)): 30.9 µM
TGI (UACC-62; read-out: pTGI): 5.5 µM
GI50 (IGROV-1): 0.78 µM
TGI (IGROV-1): > 100 µM
CC50 (IGROV-1; read-out: LC50): > 100 µM
GI50 (IGROV-1; read-out: pGI50 (converted)): 0.776 µM
CC50 (IGROV-1; read-out: pLC50 (converted)): 100 µM
TGI (IGROV-1; read-out: pTGI): 100 µM
GI50 (SNB-19): 1.44 µM
TGI (SNB-19): 12.3 µM
CC50 (SNB-19; read-out: LC50): > 100 µM
GI50 (SNB-19; read-out: pGI50 (converted)): 1.15 µM
CC50 (SNB-19; read-out: pLC50 (converted)): 100 µM
TGI (SNB-19; read-out: pTGI): 12.3 µM
